From US20100041657A1, “HALOALKYLSULFONE SUBSTITUTED COMPOUNDS USEFUL FOR TREATING OBESITY AND DIABETES” (NOVO NORDICK A/S, priority 2005, published 2010)
Values joined by “and” are separate entries in the source; they are usually repeats but may differ in a detail not shown here. Equal entries are not always repeated.

| melting point | SMILES |
| --- | --- |
| 172 to 175 °C | O=C(Nc1ccc(SC(F)(F)F)cc1)c1cc(Cl)c2ccccc2c1O [Example 23, 4-Chloro-1-hydroxy-naphthalene-2-carboxylic acid (4-trifluoromethylsulfanyl-phenyl)amide] |
| 171 to 175 °C | COc1c(O)cc(C(C)(C)C)c(O)c1C(=O)Nc1ccc(S(=O)(=O)C(F)(F)F)cc1Cl [Example 96, 3-tert-Butyl-N-(2-chloro-4-trifluoromethanesulfonyl-phenyl)-2,5-dihydroxy-6-methoxy-benzamide] |
| 172 to 173 °C | CC(C)(C)c1cc2c(c(C(=O)Nc3ccc(S(=O)(=O)C(F)(F)F)cc3Cl)c1O)CCC2 [Example 48, 6-tert-Butyl-5-hydroxy-indan-4-carboxylic acid (2-chloro-4-trifluoromethanesulfonylphenyl)-amide] |
| 179 to 180 °C | O=C(Nc1cccc(S(=O)(=O)C(F)(F)F)c1)c1c(O)ccc2ccccc12 [Example 18, 2-Hydroxy-naphthalene-1-carboxylic acid (3-trifluoromethanesulfonyl-phenyl)-amide] |
| 218 to 219 °C | O=C(Nc1ccc(S(=O)(=O)C(F)(F)F)cc1Cl)c1c(O)c(C23CC4CC(CC(C4)C2)C3)cc2c1CCC2 [Example 30, 6-Adamantan-1-yl-5-hydroxy-indan-4-carboxylic acid (2-chloro-4-trifluoromethanesulfonyl-phenyl)-amide] |
| 114 to 115 °C | CC1(c2cc(-c3ccc(F)cc3F)cc(C(=O)Nc3ccc(S(=O)(=O)C(F)(F)F)cc3Cl)c2O)CCCCC1 [Example 35, 2′,4′-Difluoro-4-hydroxy-5-(1-methyl-cyclohexyl)-biphenyl-3-carboxylic acid (2-chloro-4-trifluoromethanesulfonyl-phenyl)-amide] |
| 167 °C | O=C(Nc1ccc(SC(F)(F)F)cc1)c1ccc2c(c1O)CCCC2 [Example 21, 1-Hydroxy-5,6,7,8-tetrahydro-naphthalene-2-carboxylic acid (4-trifluoromethylsulfanyl-phenyl)-amide] |
| 212 to 213 °C | O=C(Nc1cccc(S(=O)(=O)C(F)(F)F)c1)c1cc2ccccc2cc1O [Example 19, 3-Hydroxy-naphthalene-2-carboxylic acid (3-trifluoromethanesulfonyl-phenyl)-amide] |
| 205 to 206 °C and 201 to 202 °C | CSc1c(C)cc(O)c(C(=O)Nc2ccc(S(=O)(=O)C(F)(F)F)cc2Cl)c1C [Example 163, N-(2-Chloro-4-trifluoromethanesulfonyl-phenyl)-6-hydroxy-2,4-dimethyl-3-methylsulfanyl-benzamide] |
| 198 to 199 °C | COc1ccc(C(C)(C)C)c(O)c1C(=O)Nc1ccc(S(=O)(=O)C(F)(F)F)cc1Cl [Example 92, 3-tert-Butyl-N-(2-chloro-4-trifluoromethanesulfonyl-phenyl)-2-hydroxy-6-methoxy-benzamide] |
| 218 to 219 °C (dec.) | Cc1c([S+](C)[O-])cc(C(C)(C)C)c(O)c1C(=O)Nc1ccc(S(=O)(=O)C(F)(F)F)cc1Cl (stereo not shown) [Example 51, 3-tert-Butyl-N-(2-chloro-4-trifluoromethanesulfonyl-phenyl)-2-hydroxy-5-methanesulfinyl-6-methyl-benzamide] |
| 148 to 149 °C | O=C(Nc1ccc(SC(F)(F)F)c(Cl)c1)c1cc(Cl)c2ccccc2c1O [Example 27, 4-Chloro-1-hydroxy-naphthalene-2-carboxylic acid (3-chloro-4-trifluoromethylsulfanyl-phenyl)-amide] |
| 157 to 158 °C | CCc1c(C(C)(C)C)cc(C(C)(C)C)c(O)c1C(=O)Nc1ccc(S(=O)(=O)C(F)(F)F)cc1Cl [Example 47, 3,5-Di-tert-butyl-N-(2-chloro-4-trifluoromethanesulfonyl-phenyl)-2-ethyl-6-hydroxybenzamide] |
| 154 °C | O=C(Nc1cccc(SC(F)(F)F)c1)c1ccc2ccccc2c1O [Example 17, 1-Hydroxy-naphthalene-2-carboxylic acid (3-trifluoromethylsulfanyl-phenyl)-amide] |
| 209 to 212 °C | Cc1cc(C(=O)Nc2ccc(S(=O)(=O)C(F)(F)F)cc2Cl)c(O)c(C(C)(C)C)c1 [Example 26, 3-tert-Butyl-N-(2-chloro-4-trifluoromethanesulfonyl-phenyl)-2-hydroxy-5-methylbenzamide] |
| 194 to 195 °C | O=C(Nc1cccc(S(=O)(=O)C(F)(F)F)c1)c1ccc2ccccc2c1O [Example 16, 1-Hydroxy-naphthalene-2-carboxylic acid (3-trifluoromethanesulfonyl-phenyl)-amide] |

| melting point | SMILES |
| --- | --- |
| 195 to 198 °C | O=C(Nc1ccc(S(=O)(=O)C(F)(F)F)cc1Cl)c1cc(Sc2ccc(F)cc2)c2ccccc2c1O [Example 31, 4-(4-Fluoro-phenylsulfanyl)-1-hydroxy-naphthalene-2-carboxylic acid (2-chloro-4-trifluoromethanesulfonyl-phenyl)-amide] |
| 151 °C | CC(C)(C)c1cc2c(c(C(=O)Nc3ccc(S(=O)(=O)C(F)(F)F)cc3Cl)c1O)CCCC2 [Example 50, 3-tert-Butyl-2-hydroxy-5,6,7,8-tetrahydro-naphthalene-1-carboxylic acid (2-chloro-4-trifluoromethanesulfonyl-phenyl)-amide] |
| 177 to 178 °C | O=C(Nc1ccc(S(=O)(=O)C(F)(F)F)cc1Cl)c1cc(-c2ccc(F)cc2F)cc(C23CC4CC(CC(C4)C2)C3)c1O [Example 32, 5-Adamantan-1-yl-2′,4′-difluoro-4-hydroxy-biphenyl-3-carboxylic acid (2-chloro-4-trifluoromethanesulfonyl-phenyl)-amide] |
| 116 to 116.5 °C | CC(C)c1ccc(C(C)(C)C)c(O)c1C(=O)Nc1ccc(S(=O)(=O)C(F)(F)F)cc1Cl [Example 54, 3-tert-Butyl-N-(2-chloro-4-trifluoromethanesulfonyl-phenyl)-2-hydroxy-6-isopropyl-benzamide] |
| 149 to 150 °C | CC(C)(C)c1cc(C(C)(C)C)c(O)c(C(=O)Nc2ccc(S(=O)(=O)C(F)(F)F)cc2Cl)c1O [Example 100, 3,5-Di-tert-butyl-N-(2-chloro-4-trifluoromethanesulfonyl-phenyl)-2,6-dihydroxy-benzamide] |
| 126 to 127 °C | CCc1ccc(C(C)(C)C)c(O)c1C(=O)Nc1ccc(S(=O)(=O)C(F)(F)F)cc1Cl [Example 46, 3-tert-Butyl-N-(2-chloro-4-trifluoromethanesulfonyl-phenyl)-6-ethyl-2-hydroxybenzamide] |
| 121 to 122 °C | COc1cc(C(C)(C)C)c(O)c(C(=O)Nc2ccc(S(=O)(=O)C(F)(F)F)cc2Cl)c1C [Example 93, 3-tert-Butyl-N-(2-chloro-4-trifluoromethanesulfonyl-phenyl)-2-hydroxy-5-methoxy-6-methyl-benzamide] |
| 198 to 199.5 °C | O=C(Nc1ccc(S(=O)(=O)C(F)(F)F)cc1Cl)c1cc([S+]([O-])c2ccc(F)cc2)c2ccccc2c1O (stereo not shown) [Example 33, 4-(4-Fluoro-benzenesulfinyl)-1-hydroxy-naphthalene-2-carboxylic acid (2-chloro-4-trifluoromethanesulfonyl-phenyl)-amide] |
| 170 to 171 °C | COc1cc(C(C)(C)C)c(O)c(C(=O)Nc2ccc(S(=O)(=O)C(F)(F)F)cc2Cl)c1O [Example 97, 3-tert-Butyl-N-(2-chloro-4-trifluoromethanesulfonyl-phenyl)-2,6-dihydroxy-5-methoxy-benzamide] |
| 203 to 204 °C | Cc1cc(C(=O)Nc2ccc(S(=O)(=O)C(F)(F)F)cc2Cl)c(O)c(C23CC4CC(CC(C4)C2)C3)c1 [Example 24, 3-Adamantan-1-yl-N-(2-chloro-4-trifluoromethanesulfonyl-phenyl)-2-hydroxy-5-methyl-benzamide] |
| 271 to 272 °C | O=C(Nc1ccc(SC(F)(F)F)cc1)c1cc(S(=O)(=O)c2ccccc2)c2ccccc2c1O [Example 22, 4-Benzenesulfonyl-1-hydroxy-naphthalene-2-carboxylic acid (4-trifluoromethylsulfanyl-phenyl)-amide] |
| 205 to 206 °C | O=C(Nc1ccc(S(=O)(=O)C(F)(F)F)cc1Cl)c1c(O)c(C23CC4CC(CC(C4)C2)C3)cc2c1CCCC2 [Example 29] |
| 201 to 202 °C | CC(C)(C)c1cc2c(c(C(=O)Nc3ccc(S(=O)(=O)C(F)(F)F)cc3Cl)c1O)CCO2 [Example 94, 6-tert-Butyl-5-hydroxy-2,3-dihydro-benzofuran-4-carboxylic acid (2-chloro-4-trifluoromethanesulfonyl-phenyl)-amide] |
| 163 to 166 °C | Cc1c(O)cc(C(C)(C)C)c(O)c1C(=O)Nc1ccc(S(=O)(=O)C(F)(F)F)cc1Cl [Example 95, 3-tert-Butyl-N-(2-chloro-4-trifluoromethanesulfonyl-phenyl)-2,5-dihydroxy-6-methylbenzamide] |
| 126 to 127 °C | COc1cc(C(=O)Nc2ccc(S(=O)(=O)C(F)(F)F)cc2Cl)c(O)c(C(C)(C)C)c1 [Example 53, 3-tert-Butyl-N-(2-chloro-4-trifluoromethanesulfonyl-phenyl)-2-hydroxy-5-methoxy-benzamide] |
